From patent US20220153746A1, “NITROGEN OXIDE-DONATING PDE-5 AND/OR PDE-6 INHIBITOR COMPOUNDS, AND USES THEREOF” (ILDONG PHARMACEUTICAL CO., LTD., priority 2020, published 2022)
Read-outs that look alike come from different tables or passages of the source.

Experiment: PK Phase (Group 2): plasma concentrations and pharmacokinetics of Compound 18 and its metabolite Compound 4 after once daily ocular instillation of Compound 18 nanosuspension for 7 days
Type: in vivo, New Zealand white rabbits
Details: for Cmax / Tmax / AUC(0-t) / half-life: male, New Zealand white, rabbit, plasma, topical or ocular, 0.8 mg/kg; for AUC(0-t): read-out: AUC0-24; for Day 1 Compound 4 Plasma Concentration / Day 7 Compound 4 Plasma Concentration: metabolite after Compound 18 dosing
Excerpt: This example illustrates the procedures and results for the levels of Compound 18 and its metabolite Compound 4 in plasma and ocular tissues of normotensive rabbits following ocular instillation of Compound 18 once daily for 7 consecutive days.
Twenty five (25) male New Zealand white rabbits were divided into 5 groups of varying amounts of animals per group.
The Test article, Compound 18 was formulated as a 2% nanosuspension in DI water containing 0.2% PS80 (polyoxyethylenesorbitan, monooleate (Tween 80)) and 0.4% HPMC (hydroxypropylmethylcellulose) at pH 6.77. Referred to herein as “Compound 18 nanosuspension.”
The study consisted of three groups (Groups 1-3) of 19 male rabbits (NZW) that underwent once daily morning ocular installation (1 eyedrop) for 7 consecutive days (Day 0-6). Groups 4-5 each consisted of 3 male rabbits (NZW) that were not dosed.
Blood samples (1 mL) were collected from the jugular vein at the intervals set out below for each group. The samples were then inverted several times following collection and held on wet ice until centrifuged. Samples were centrifuged within 60 minutes of collection under refrigeration (set at 5° C. for 10 minutes at 2000 g. […]
Plasma and tissue samples from treated animals (Groups 1-3) were analyzed for Compound 18 and its metabolite Compound 4 concentrations by LC-MS/MS.
Pharmacokinetic analysis was conducted using WinNonlin Version 6.2.1 (Pharsight, Mountain View, Calif.), operating as a validated software system. Noncompartmental analysis was conducted using the extravascular administration model for ocular instillation dosing.
The peak plasma concentration, time to achieve peak plasma concentration, half-life, and area under the plasma concentration-time curve (Cmax, Tmax, T1/2, and AUC) were calculated from the PK phase individual animal plasma concentrations for each sampling time/dose group for Compound 18 and its metabolite Compound 4.
BA Assay: Quantitation Range 0.05 to 100 ng/mL for Compound 18, 0.15 to 100 ng/mL for Compound 4.
Plasma calibration standards (PLSTD-A) with Compound 18 concentrations ranging from 0.0500 to 100 ng/mL were prepared by spiking control rabbit plasma with appropriate calibration curve spiking solutions (SS-A). PLQC-A samples with concentrations of 0.150, 5.00, 50.0, and 80.0 ng/mL were prepared by spiking control rabbit plasma with appropriate SS-A-QC spiking solutions.
Plasma calibration standards (PLSTD-B) with Compound 4 concentrations ranging from 0.150 to 100 ng/mL were prepared by spiking control rabbit plasma with appropriate calibration curve spiking solutions (SS-B). PLQC-B samples with concentrations of 0.450, 5.00, 50.0, and 80.0 ng/mL were prepared by spiking control rabbit plasma with appropriate SS-B-QC spiking solutions. PLQC-B-Dil samples at 800 ng/mL were prepared by spiking control rabbit plasma with the SS-B-QC-Dil spiking solution at 16,000 ng/mL, and then diluted 20× with control rabbit plasma prior to extraction.
1. Thaw plasma standards, plasma QC samples, ocular tissue QC samples, incurred plasma samples and ocular tissue samples (AH/VH) (if applicable) on wet ice. Control plasma can be thawed in tepid water. Vortex before taking aliquots.
2. Pipet 50 μL of water for Reagent Blank, 50 μL of control plasma for Double Blank and Blank, 50 μL of pre-spiked plasma for Standards and QC samples, 50 μL of incurred plasma samples (if applicable) into a 96 well plate.
5. Add 200 μL of working internal standard (WIS) solution to all remaining samples.
6. Seal the plate and vortex for approximately 5 minutes. Centrifuge the plate at 3500 rpm for 10 minutes at ˜4° C.
7. Transfer ˜200 μL of each sample supernatant into the appropriate wells of a 96 well plate. Submit for LC MS/MS analysis.
A total of 25 rabbits were used for this study, including 19 treated rabbits and 6 control rabbits. […]

[1] = Day 1, Compound 18 0.8 mg/kg ocular instillation, Mean, n=4
[2] = Day 1, Compound 18 0.8 mg/kg ocular instillation, animal 207664
[3] = Day 1, Compound 18 0.8 mg/kg ocular instillation, animal 207665
[4] = Day 1, Compound 18 0.8 mg/kg ocular instillation, animal 207666
[5] = Day 1, Compound 18 0.8 mg/kg ocular instillation, animal 207667
[6] = Day 7, Compound 18 0.8 mg/kg ocular instillation, Mean, n=4
[7] = Day 7, Compound 18 0.8 mg/kg ocular instillation, animal 207664
[8] = Day 7, Compound 18 0.8 mg/kg ocular instillation, animal 207665
[9] = Day 7, Compound 18 0.8 mg/kg ocular instillation, animal 207666
[10] = Day 7, Compound 18 0.8 mg/kg ocular instillation, animal 207667

Molecule `CCCc1nn(C)c2c(=O)[nH]c(-c3cc(S(=O)(=O)N4CC(CCCO)C4)ccc3OCC)nc12` [Compound 4, 5-(2-ethoxy-5-((3-(3-hydroxypropyl)azetidin-1-yl)sulfonyl)phenyl)-1-methyl-3-propyl-1,6-dihydro-7H-pyrazolo[4,3-d]pyrimidin-7-one] has a Cmax [1] of 0.944 ± 0.565 ng/mL, a Tmax [1] of 30 min and an AUC(0-t) [1] of 1.14 ± 0.957 ng·h/mL. For the same molecule, the Cmax [2] was 0.497 ng/mL, the Tmax [2] was 30 min and the AUC(0-t) [2] was 0.575 ng·h/mL. The Cmax [3] was 0.527 ng/mL, the Tmax [3] was 30 min and the half-life (Day 1, Compound 18 0.8 mg/kg ocular instillation, animal 207665 (one rabbit reportable)) was 24.8 min. The AUC(0-t) [3] was 0.321 ng·h/mL, the Cmax [4] was 1.7 ng/mL and the Tmax [4] was 30 min. The AUC(0-t) [4] was 2.46 ng·h/mL, the Cmax [5] was 1.05 ng/mL and the Tmax [5] was 30 min. It also gave an AUC(0-t) [5] of 1.18 ng·h/mL, a half-life (Day 7, Compound 18 0.8 mg/kg ocular instillation, Mean, n=2) of 79.2 ± 42.1 min and a Cmax [6] of 0.963 ± 0.17 ng/mL. For the same molecule, the Tmax [6] was 45 ± 17.4 min, the AUC(0-t) [6] was 1.71 ± 0.416 ng·h/mL and the Cmax [7] was 0.851 ng/mL. The Tmax [7] was 30 min, the AUC(0-t) [7] was 1.13 ng·h/mL and the Cmax [8] was 0.938 ng/mL. The Tmax [8] was 30 min, the half-life [8] was 49.4 min and the AUC(0-t) [8] was 1.72 ng·h/mL. It also gave a Cmax [9] of 0.851 ng/mL, a Tmax [9] of 60 min and a half-life [9] of 109 min. For the same molecule, the AUC(0-t) [9] was 1.92 ng·h/mL, the Cmax [10] was 1.21 ng/mL and the Tmax [10] was 60 min. For the same molecule, the AUC(0-t) [10] was 2.08 ng·h/mL, the “Day 1 Compound 4 Plasma Concentration” value (2 h, animal 207665) was “BQL (BQL = Below lower limit of quantitation (0.0500 ng/mL for Compound 18 and 0.150 ng/mL for Compound 4))” and the “Day 1 Compound 4 Plasma Concentration” value (4 h, animal 207664) was “BQL (BQL = Below lower limit of quantitation (0.0500 ng/mL for Compound 18 and 0.150 ng/mL for Compound 4))”. The “Day 7 Compound 4 Plasma Concentration” value (4 h, animal 207664) was “BQL (BQL = Below lower limit of quantitation (0.0500 ng/mL for Compound 18 and 0.150 ng/mL for Compound 4))”, the “Day 1 Compound 4 Plasma Concentration” value (4 h, animal 207665) was “BQL (BQL = Below lower limit of quantitation (0.0500 ng/mL for Compound 18 and 0.150 ng/mL for Compound 4))” and the “Day 7 Compound 4 Plasma Concentration” value (4 h, animal 207665) was “BQL (BQL = Below lower limit of quantitation (0.0500 ng/mL for Compound 18 and 0.150 ng/mL for Compound 4))”. For the same molecule, the “Day 1 Compound 4 Plasma Concentration” value (4 h, animal 207667) was “BQL (BQL = Below lower limit of quantitation (0.0500 ng/mL for Compound 18 and 0.150 ng/mL for Compound 4))”, the “Day 1 Compound 4 Plasma Concentration” value (8 h, animal 207664) was “BQL (BQL = Below lower limit of quantitation (0.0500 ng/mL for Compound 18 and 0.150 ng/mL for Compound 4))” and the “Day 7 Compound 4 Plasma Concentration” value (8 h, animal 207664) was “BQL (BQL = Below lower limit of quantitation (0.0500 ng/mL for Compound 18 and 0.150 ng/mL for Compound 4))”. The “Day 1 Compound 4 Plasma Concentration” value (8 h, animal 207665) was “BQL (BQL = Below lower limit of quantitation (0.0500 ng/mL for Compound 18 and 0.150 ng/mL for Compound 4))”, the “Day 1 Compound 4 Plasma Concentration” value (8 h, animal 207666) was “BQL (BQL = Below lower limit of quantitation (0.0500 ng/mL for Compound 18 and 0.150 ng/mL for Compound 4))” and the “Day 7 Compound 4 Plasma Concentration” value (8 h, animal 207666) was “BQL (BQL = Below lower limit of quantitation (0.0500 ng/mL for Compound 18 and 0.150 ng/mL for Compound 4))”. The “Day 1 Compound 4 Plasma Concentration” value (8 h, animal 207667) was “BQL (BQL = Below lower limit of quantitation (0.0500 ng/mL for Compound 18 and 0.150 ng/mL for Compound 4))”, the “Day 7 Compound 4 Plasma Concentration” value (8 h, animal 207667) was “BQL (BQL = Below lower limit of quantitation (0.0500 ng/mL for Compound 18 and 0.150 ng/mL for Compound 4))” and the “Day 1 Compound 4 Plasma Concentration” value (24 h, animal 207664) was “BQL (BQL = Below lower limit of quantitation (0.0500 ng/mL for Compound 18 and 0.150 ng/mL for Compound 4))”. The “Day 7 Compound 4 Plasma Concentration” value (24 h, animal 207664) was “BQL (BQL = Below lower limit of quantitation (0.0500 ng/mL for Compound 18 and 0.150 ng/mL for Compound 4))”, the “Day 1 Compound 4 Plasma Concentration” value (24 h, animal 207665) was “BQL (BQL = Below lower limit of quantitation (0.0500 ng/mL for Compound 18 and 0.150 ng/mL for Compound 4))” and the “Day 7 Compound 4 Plasma Concentration” value (24 h, animal 207665) was “BQL (BQL = Below lower limit of quantitation (0.0500 ng/mL for Compound 18 and 0.150 ng/mL for Compound 4))”. For the same molecule, the “Day 1 Compound 4 Plasma Concentration” value (24 h, animal 207666) was “BQL (BQL = Below lower limit of quantitation (0.0500 ng/mL for Compound 18 and 0.150 ng/mL for Compound 4))”, the “Day 7 Compound 4 Plasma Concentration” value (24 h, animal 207666) was “BQL (BQL = Below lower limit of quantitation (0.0500 ng/mL for Compound 18 and 0.150 ng/mL for Compound 4))” and the “Day 1 Compound 4 Plasma Concentration” value (24 h, animal 207667) was “BQL (BQL = Below lower limit of quantitation (0.0500 ng/mL for Compound 18 and 0.150 ng/mL for Compound 4))”. The “Day 7 Compound 4 Plasma Concentration” value (24 h, animal 207667) was “BQL (BQL = Below lower limit of quantitation (0.0500 ng/mL for Compound 18 and 0.150 ng/mL for Compound 4))”.
